Test: Chemical stability in aqueous buffer at PH 7.3 by spontaneous hydrolysis
Assay type: physicochemical

Compared with `O=C(c1c(F)cccc1F)n1cc(Br)cn1`, `O=C(c1cc(F)c(F)cc1Cl)n1cc(Br)cn1` is 4.2-fold lower in half-life: 3.1 h for the first, 0.73 h for the second.

Going from `Cc1ccc(C(=O)n2ccc([N+](=O)[O-])n2)cc1` to `O=C(c1ccccc1)n1ccc([N+](=O)[O-])n1`, the half-life falls from 0.1 h to 0.033 h (3-fold).

Compared with `Cc1cc([N+](=O)[O-])nn1C(=O)c1ccccc1F`, `Cc1nn(C(=O)c2ccccc2F)c(C)c1Cl` is 33-fold higher in half-life: 0.16 h for the first, 5.3 h for the second.

Going from `O=C(Nc1ccccc1)c1ccn(C(=O)c2ccccc2)n1` to `CC(=O)Nc1ccc(C(=O)n2ccc(C)n2)cc1`, the half-life rises from 0.51 h to 10 h (20-fold).

`O=C(c1ccc(F)cc1)n1cc(Cl)cn1` and `CC(C)(C)c1ccc(C(=O)n2cc(Cl)cn2)cc1` are within 1.5-fold of each other in half-life: 1.6 h for the first, 2.2 h for the second.

First: Cc1nn(C(=O)c2ccc(Cl)cc2Cl)c(C)c1Cl
Second: Cc1nn(C(=O)c2ccc(Cl)cc2)c(C)c1Cl
The half-life of the first is 2.8-fold higher: 7.2 h for the first, 2.6 h for the second.

First: Cc1ccccc1C(=O)n1cc([N+](=O)[O-])cn1
Second: Cc1ccccc1C(=O)n1cc(Br)cn1
The half-life of the first is 11-fold lower: 0.55 h for the first, 6.2 h for the second.

Going from `Cc1ccc(C(=O)c2ccn(C(=O)c3ccc(F)cc3)n2)c(C)c1` to `Cc1ccc(C(=O)n2cc(Br)cn2)cc1`, the half-life rises from 0.21 h to 2.1 h (10-fold).

Going from `Cc1nn(C(=O)c2ccccc2Br)c(C)c1Cl` to `Cc1nn(C(=O)c2ccc(Cl)cc2)c(C)c1Br`, the half-life falls from 12.5 h to 2.1 h (6-fold).

First: Cc1cccc(C(=O)n2cc(Br)cn2)c1
Second: O=C(c1cccc([N+](=O)[O-])c1)n1cc(Cl)cn1
The half-life of the first is 23-fold higher: 5.1 h for the first, 0.22 h for the second.

Going from `O=C(c1ccc(Cl)c(Cl)c1)n1cccn1` to `O=C(c1cc(F)ccc1Cl)n1cccn1`, the half-life rises from 1.1 h to 2.5 h (2.3-fold).

First: Cc1cc(C)n(C(=O)c2ccc(C)c(Br)c2)n1
Second: Cc1cc(C)n(C(=O)c2ccc(Cl)c(Cl)c2)n1
The half-life of the first is 2.5-fold higher: 25.1 h for the first, 10 h for the second.

Compared with `O=C(c1ccccc1)n1cc([N+](=O)[O-])cn1`, `O=C(c1ccccc1Cl)n1cc(Cl)cn1` is 75-fold higher in half-life: 0.04 h for the first, 3 h for the second.

Compared with `COC(=O)c1ccnn1C(=O)c1ccc(Cl)cc1`, `Cc1ccccc1C(=O)n1cc(Cl)cn1` is 14-fold higher in half-life: 0.29 h for the first, 4.2 h for the second.

Going from `Cc1cc(C)n(C(=O)c2ccc(Cl)c([N+](=O)[O-])c2)n1` to `Cc1nn(C(=O)c2ccc(Cl)c([N+](=O)[O-])c2)c(C)c1Cl`, the half-life falls from 5.6 h to 2.2 h (2.5-fold).

`O=C(c1ccccc1Cl)n1cccn1` and `Cc1ccccc1C(=O)n1cccn1` are within 1.5-fold of each other in half-life: 1.1 h for the first, 1.2 h for the second.

`COc1cc(C(=O)n2ccc(C)n2)cc(OC)c1OC` and `Cc1nn(C(=O)c2cccc(Br)c2)c(C)c1Br` are within 1.5-fold of each other in half-life: 4.2 h for the first, 3.1 h for the second.

Source: ChEMBL document CHEMBL1148811, “N-benzoylpyrazoles are novel small-molecule inhibitors of human neutrophil elastase” (J Med Chem, 2007)
